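Values below derive from 48-hour exposures of cells grown in 96-well plates, with endpoints linearly interpolated between the two concentrations bracketing the appropriate inhibition level. The concentration for 50% growth inhibition is given as GI50.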 Calls of active or inactive are those of the source. Cut-off read from the data, not from the text of the source: active = GI50 up to about 1.1 µM and inactive = higher.
Columns and labels:
Experiment in all cases: NCI-60 cell line screen, 48 h
[1] = tested on: SN12C
[2] = tested on: HCT-15
[3] = tested on: 786-0
[4] = tested on: T47D
[5] = tested on: SK-MEL-28
[6] = tested on: IGROV-1
[7] = tested on: A498
[8] = tested on: BT-549
[9] = tested on: MCF7
[10] = tested on: OVCAR-3
[11] = tested on: RPMI-8226
[12] = tested on: SF-539
[13] = tested on: SW-620
[14] = tested on: HL-60
[15] = tested on: TK-10
[16] = tested on: UACC-62
[17] = tested on: NCI-H23
[18] = tested on: OVCAR-5
[19] = tested on: CAKI-1
[20] = tested on: KM12
[21] = tested on: UO-31
[22] = tested on: HOP-62
[23] = tested on: SK-OV-3
[24] = tested on: ACHN
[25] = tested on: HOP-92
[26] = tested on: SNB-19
[27] = tested on: NCI/ADR-RES
[28] = tested on: M14
[29] = tested on: HCT-116
[30] = tested on: OVCAR-8
[31] = tested on: SF-295
[32] = tested on: EKVX
[33] = tested on: UACC-257
[34] = tested on: MDA-MB-231
[35] = tested on: OVCAR-4
[36] = tested on: PC-3
[37] = tested on: SK-MEL-2
[38] = tested on: RXF 393
[39] = tested on: A549
[40] = tested on: MDA-N
[41] = tested on: SR
[42] = tested on: SK-MEL-5
[43] = tested on: COLO 205
[44] = tested on: NCI-H226
[45] = tested on: DU-145
[46] = tested on: U-251
[47] = tested on: NCI-H460
[48] = tested on: HT-29
[49] = tested on: LOX IMVI
[50] = tested on: MOLT-4
[51] = tested on: K562

NN/C(=N\c1ccc(Cl)cc1)NS(=O)(=O)c1ccc(S(=O)(=O)c2ccccc2)s1
GI50 [1]: 22.6 µM (inactive) | GI50 [2]: 22 µM | GI50 [3]: 21.4 µM (inactive) | GI50 [4]: 8.17 µM (inactive) | GI50 [5]: 46.7 µM (inactive) | GI50 [6]: 19 µM (inactive) | GI50 [7]: 49.1 µM (inactive) | GI50 [8]: 26.4 µM (inactive) | GI50 [9]: 22.2 µM (inactive) | GI50 [10]: 20.6 µM (inactive) | GI50 [11]: 21.2 µM (inactive) | GI50 [12]: 39.4 µM (inactive) | GI50 [13]: 38.6 µM (inactive) | GI50 [14]: 24.2 µM (inactive) | GI50 [15]: 26.7 µM (inactive) | GI50 [16]: 7.21 µM (inactive) | GI50 [17]: 20.4 µM (inactive) | GI50 [18]: 37.6 µM (inactive) | GI50 [19]: 27.7 µM (inactive) | GI50 [20]: 9.79 µM (inactive) | GI50 [21]: 23.7 µM (inactive) | GI50 [22]: 41.2 µM (inactive) | GI50 [23]: 71.9 µM (inactive) | GI50 [24]: 16.8 µM (inactive) | GI50 [25]: 18.6 µM (inactive) | GI50 [26]: 38.3 µM (inactive) | GI50 [27]: 18.5 µM (inactive) | GI50 [28]: 15.8 µM (inactive) | GI50 [29]: 14.8 µM (inactive) | GI50 [30]: 30.3 µM (inactive) | GI50 [31]: 8.79 µM (inactive) | GI50 [32]: 11 µM (inactive) | GI50 [33]: 18 µM (inactive) | GI50 [34]: 33.3 µM (inactive) | GI50 [35]: 21.1 µM (inactive) | GI50 [36]: 25.5 µM (inactive) | GI50 [37]: 19.1 µM (inactive) | GI50 [38]: 15.5 µM (inactive) | GI50 [39]: 20.1 µM (inactive) | GI50 [40]: 13.7 µM (inactive) | GI50 [41]: 16 µM (inactive) | GI50 [42]: 19.2 µM (inactive) | GI50 [43]: 17 µM (inactive) | GI50 [44]: 40.6 µM (inactive) | GI50 [45]: 21.8 µM (inactive) | GI50 [46]: 29 µM (inactive) | GI50 [47]: 17.2 µM (inactive) | GI50 [48]: 18.6 µM (inactive) | GI50 [49]: 15.3 µM (inactive) | GI50 [50]: 9.16 µM (inactive) | GI50 [51]: 10.9 µM (inactive)
